According to patent publication US9169241B2, “Quinolinyloxyphenylsulfonamides” (Max-Planck-Gesellschaft Zur Forderung der Wissenschaften …, priority 2009, dated 2015):

How the values were obtained:
Hs578T = experiment: Wound healing migration assay; assay type: cell-based; details: Homo sapiens, Hs-578T; HS578T cell line; Table Ib
Summary of the method: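 Compound exposure at 12.5, 6.25 and 3.125 μM, with DMSO control, on scratch-wounded monolayers (150000 cells/24 well, overnight). Wound closure imaged by microscopy, fixed with crystal violet after 48 h or 72 h depending on cell line; IC50 is the concentration giving 50% wound size between t0 and t48/t72.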

[1] = target: T1, wild type AXL (wtAXL) receptor tyrosine kinase (Homo sapiens, UniProt P30530); experiment: NIH-3T3-AXL cellular kinase assay (pY-AXL-ELISA); assay type: cell-based; details: NIH-3T3-AXL (clone 22) cells, serum depleted, compounds 1 h; Table Ia
T1 construct: WtAXL cDNA was cloned into vector pLXSN(ESK) and transfected into Phoenix E packaging cells; expressed in transfected cells; host or cells: NIH3T3 N7 (mouse fibroblasts), retrovirally infected, clone 22
T1 sequence (P30530 26-894): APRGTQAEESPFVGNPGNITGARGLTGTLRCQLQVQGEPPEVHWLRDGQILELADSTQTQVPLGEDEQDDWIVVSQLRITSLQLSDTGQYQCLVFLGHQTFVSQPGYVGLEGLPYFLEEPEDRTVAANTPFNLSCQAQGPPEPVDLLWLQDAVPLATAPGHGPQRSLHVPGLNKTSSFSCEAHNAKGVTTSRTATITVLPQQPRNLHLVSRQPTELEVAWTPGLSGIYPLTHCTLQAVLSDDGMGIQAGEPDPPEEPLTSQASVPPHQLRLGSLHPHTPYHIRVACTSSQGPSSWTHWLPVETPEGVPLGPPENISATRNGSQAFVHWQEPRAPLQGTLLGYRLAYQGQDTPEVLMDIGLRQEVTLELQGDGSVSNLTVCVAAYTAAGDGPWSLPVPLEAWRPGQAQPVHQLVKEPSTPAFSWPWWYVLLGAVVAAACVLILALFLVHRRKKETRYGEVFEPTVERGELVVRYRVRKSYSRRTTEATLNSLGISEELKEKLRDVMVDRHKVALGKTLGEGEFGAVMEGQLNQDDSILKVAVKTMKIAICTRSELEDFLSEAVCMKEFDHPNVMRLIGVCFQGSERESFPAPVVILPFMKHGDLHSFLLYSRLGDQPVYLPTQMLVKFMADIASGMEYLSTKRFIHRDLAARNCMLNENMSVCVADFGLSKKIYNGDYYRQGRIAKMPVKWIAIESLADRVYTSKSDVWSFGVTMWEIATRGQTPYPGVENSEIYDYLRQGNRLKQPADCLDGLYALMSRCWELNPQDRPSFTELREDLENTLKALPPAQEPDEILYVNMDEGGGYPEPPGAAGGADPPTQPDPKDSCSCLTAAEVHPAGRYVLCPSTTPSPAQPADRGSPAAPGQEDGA
Summary of the method: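 Phospho-AXL was quantified by ELISA in lysates (4G10-biotin, streptavidin-AP, AttoPhos, 430/560 nm read at 90 min). The cells were monoclonal NIH3T3 lines stably transduced with human wtAXL, exposed to serial compound dilutions for 1 h before lysis.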

| IC50 (Hs578T) [µM] | IC50 [1] [µM] | SMILES |
| --- | --- | --- |
| ≤ 12.5 | < 0.5 | COc1cc2c(Oc3ccc(NS(=O)(=O)c4ccccc4OC(F)(F)F)cc3F)ccnc2cc1OCCCN(C)C [Example 179, N-{4-[7-(3-Dimethylamino-propoxy)-6-methoxy-quinolin-4-yloxy]-3-fluoro-phenyl}-2-trifluoromethoxy-benzenesulfonamide] |
| ≤ 12.5 | < 0.5 | COc1cc2c(Oc3ccc(NS(=O)(=O)c4ccccc4Cl)cc3F)ccnc2cc1OCCCN1CCCC(C)C1 (stereo not shown) [Example 38, 2-Chloro-N-(3-fluoro-4-{6-methoxy-7-[3-(3-methyl-piperidin-1-yl)-propoxy]-quinolin-4-yloxy}-phenyl)-benzenesulfonamide] |
| ≤ 12.5 | < 0.5 | COc1cc2c(Oc3ccc(NS(=O)(=O)c4ccc(Cl)s4)cc3F)ccnc2cc1OCCCN1CCCC(C)C1 (stereo not shown) [Example 63, 5-Chloro-thiophene-2-sulfonic acid (3-fluoro-4-{6-methoxy-7-[3-(3-methyl-piperidin-1-yl)-propoxy]-quinolin-4-yloxy}-phenyl)-amide] |
| ≤ 12.5 | < 0.5 | COc1cc2c(Oc3ccc(NS(=O)(=O)c4c(Cl)cccc4Cl)cc3F)ccnc2cc1OCCCN(C)C [Example 181, 2,6-Dichloro-N-{4-[7-(3-dimethylamino-propoxy)-6-methoxy-quinolin-4-yloxy]-3-fluoro-phenyl}-benzenesulfonamide] |
| ≤ 12.5 | < 0.5 | COc1cc2c(Oc3ccc(NS(=O)(=O)c4c(Cl)cccc4Cl)cc3F)ccnc2cc1OCCN1CCOCC1 [Example 104, 2,6-Dichloro-N-{3-fluoro-4-[6-methoxy-7-(2-morpholin-4-yl-ethoxy)-quinolin-4-yloxy]-phenyl}-benzenesulfonamide] |
| 12.5 to 50 | < 0.5 | COc1cc2c(Oc3ccc(NS(=O)(=O)c4c(F)cccc4F)cc3F)ccnc2cc1OCCCN(C)C [Example 178, N-{4-[7-(3-Dimethylamino-propoxy)-6-methoxy-quinolin-4-yloxy]-3-fluoro-phenyl}-2,6-difluoro-benzenesulfonamide] |
| ≤ 12.5 | < 0.5 | COc1cc2c(Oc3ccc(NS(=O)(=O)c4cccc(-c5ccccc5)c4)cc3F)ccnc2cc1OCCCN1CCCCC1 [Example 8, Biphenyl-3-sulfonic acid {3-fluoro-4-[6-methoxy-7-(3-piperidin-1-yl-propoxy)-quinolin-4-loxy]-phenyl}-amide] |
| ≤ 12.5 | < 0.5 | COc1cc2c(Oc3ccc(NS(=O)(=O)c4ccccc4OC(F)(F)F)cc3F)ccnc2cc1OCCCN1CCCCC1 [Example 78, N-{3-Fluoro-4-[6-methoxy-7-(3-piperidin-1-yl-propoxy)-quinolin-4-yloxy]-phenyl}-2-trifluoromethoxy-benzenesulfonamide] |
| ≤ 12.5 | < 0.5 | COc1cc2c(Oc3ccc(NS(=O)(=O)c4c(Cl)cccc4Cl)cc3F)ccnc2cc1OCCCN1CCCCC1 [Example 6, 2,6-Dichloro-N-{3-fluoro-4-[6-methoxy-7-(3-piperidin-1-yl-propoxy)-quinolin-4-yloxy]-phenyl}-benzenesulfonamide] |
| ≤ 12.5 | < 0.5 | COC(=O)c1sccc1S(=O)(=O)Nc1ccc(Oc2ccnc3cc(OCCCN(C)C)c(OC)cc23)c(F)c1 [Example 184, 3-{4-[7-(3-Dimethylamino-propoxy)-6-methoxy-quinolin-4-yloxy]-3-fluoro-phenylsulfamoyl}-thiophene-2-carboxylic acid methyl ester] |
| 12.5 to 50 | < 0.5 | COc1cc2c(Oc3ccc(NS(=O)(=O)c4c(F)cccc4F)cc3F)ccnc2cc1OCCN1CCOCC1 [Example 82, 2,6-Difluoro-N-{3-fluoro-4-[6-methoxy-7-(2-morpholin-4-yl-ethoxy)-quinolin-4-yloxy]-phenyl}-benzenesulfonamide] |
